Tested on: IL-1β release upon NLRP3 activation in peripheral blood mononuclear cells (PBMC)
Assay: PBMC IC50 determination assay: inhibition of IL-1β release upon NLRP3 activation
Format: cell-based
Details: PBMC primed with LPS 3 h, compound 30 min, stimulated with ATP (5 mM) or nigericin (10 μM) 1 h, IL-1β by ELISA (Protocol A) or HTRF (Protocol B)
Experimental: PBMC IC50 determination assay. The compounds of the present disclosure were tested for their inhibitory activity against IL-1β release upon NLRP3 activation in peripheral blood mononuclear cells (PBMC).
Protocol A. PBMC were isolated from buffy coats by density gradient centrifugation on Histopaque-1077 (Sigma, cat no. 10771). Isolated cells were seeded into the wells of a 96-well plate and incubated for 3 h with lipopolysaccharide (LPS). Following medium exchange, the compounds of the present disclosure were added (a single compound per well) and the cells were incubated for 30 min. Next, the cells were stimulated either with ATP (5 mM) or nigericin (10 μM) for 1 h and the cell culture media from the wells were collected for further analysis.
The release of IL-1β into the media was determined by a quantitative detection of IL-1β in the media using an IL-1β enzyme-linked immunosorbent assay (ELISA) Ready-SET-Go!, eBioscience cat. No. 88-7261-88. Briefly, in a first step, high affinity binding plates (Corning, Costar 9018 or NUNC Maxisorp Cat No. 44-2404) were coated overnight at 4° C. with specific capture antibody included in the kit (anti-human IL-1β ref. 14-7018-68). Subsequently, plates were blocked with blocking buffer for 1 h at room temperature (rt) and after washing with a buffer (PBS with 0.05% Tween-20) incubated with protein standard and culture media. After 2 h of incubation at rt, plates were washed and incubated with biotinylated detection antibody included in the kit (anti-human IL-1β Biotin ref 33-7110-68) for 1 h at rt. Plates were washed and incubated with HRP-streptavidin for 30 min at rt and washed again. The signal was developed after addition of 3,3′,5,5′-tetramethylbenzidine-peroxidase (TMB) until colour appeared and the reaction was stopped by 2 M H2SO4. A microplate spectrophotometer (BioTek) was used to detect signals with 450 nm. The detection range of IL-1β ELISA was […].
Protocol B. PBMC were isolated from buffy coats by density gradient centrifugation on Histopaque-1077 (Sigma, cat no. 10771). Isolated cells were seeded into the wells (280,000 cells/well) of a 96-well plate and incubated for 3 h with lipopolysaccharide (LPS, 1 μg/mL diluted 1000× from a 1 mg/mL stock solution). The compounds of the present disclosure were added (a single compound per well) and the cells were incubated for 30 min. Next, the cells were stimulated with ATP (5 mM final concentration diluted 20× from a 100 mM stock solution) for 1 h and the cell culture media from the wells were collected for further analysis.
The release of IL-1β into the media was determined by quantitative detection of IL-1β in the media using HTRF®, CisBio cat. No. 62HIL1BPEH. Briefly, cell culture supernatant were dispensed directly into the assay plate containing antibodies labelled with the HTRF® donor and acceptor. A microplate spectrophotometer (BMG) was used to detect signals at 655 nm and 620 nm. The detection range of IL-1β HTRF® was 39-6500 μg/mL.

Row | Compound | IC50 (PBMC) [nM] | IC50 [nM]
1 | CCCc1cc2c(C(C)C)nn(CC(=O)Nc3ncccn3)c(=O)c2s1 [Compound 99, 2-[7-Oxo-4-(propan-2-yl)-2-propyl-6H,7H-thieno[2,3-d]pyridazin-6-yl]-N-(pyrimidin-2-yl)acetamide] | 100 to 1000 | 
2 | CCc1cc2c(C(C)C)nn(CC(=O)N[C@H]3C[C@@](C)(O)C3)c(=O)c2s1 [Compound 69, 2-(2-Ethyl-4-isopropyl-7-oxothieno[2,3-d]pyridazin-6(7H)-yl)-N-((cis)-3-hydroxy-3-methylcyclobutyl)acetamide] | 100 to 1000 | 
3 | Cc1nn(CC(=O)Nc2ncccn2)c(=O)c2cc(C3CC3)oc12 [Compound 82, 2-{2-Cyclopropyl-7-methyl-4-oxo-4H,5H-furo[2,3-d]pyridazin-5-yl}-N-(pyrimidin-2-yl)acetamide] | 100 to 1000 | 
4 | CC(C)c1nn(CC(=O)Nc2ncccn2)c(=O)c2sc(Br)cc12 [Compound 64, 2-(2-Bromo-4-isopropyl-7-oxothieno[2,3-d]pyridazin-6(7H)-yl)-N-(pyrimidin-2-yl)acetamide] | 100 to 1000 | 
5 | CC(C)c1nn(CC(=O)N[C@@H]2CCCN(C3CC3)C2)c(=O)c2nn(C)cc12 [Compound 9, N-[(3R)-1-Cyclopropyl-3-piperidyl]-2-(4-isopropyl-2-methyl-7-oxo-pyrazolo[3,4-d]pyridazin-6-yl)acetamide] | 10000 to 50000 | 
6 | CNc1cc2c(C(C)C)nn(C3(C(=O)Nc4ncccn4)CC3)c(=O)c2s1 [Compound 113, 1-[2-(Methylamino)-7-oxo-4-(propan-2-yl)-6H,7H-thieno[2,3-d]pyridazin-6-yl]-N-(pyrimidin-2-yl)cyclopropane-1-carboxamide] | 10000 to 50000 | 
7 | CC(C)c1nn(CC(=O)Nc2ncc(F)cn2)c(=O)c2cn(C3CC3)nc12 [Compound 17, 2-(2-Cyclopropyl-7-isopropyl-4-oxo-pyrazolo[3,4-d]pyridazin-5-yl)-N-(5-fluoropyrimidin-2-yl) acetamide] |  | 100 to 1000
8 | CC(C)c1nn(CC(=O)Nc2ncccn2)c(=O)c2sc(NCC(F)(F)F)cc12 [Compound 100, 2-[7-Oxo-4-(propan-2-yl)-2-[(2,2,2-trifluoroethyl)amino]-6H,7H-thieno[2,3-d]pyridazin-6-yl]-N-(pyrimidin-2-yl)acetamide] | 1000 to 3000 | 
9 | CNc1cc2c(=O)n(CC(=O)Nc3ncccn3)nc(C(C)C)c2o1 [Compound 111, 2-[2-(Methylamino)-4-oxo-7-(propan-2-yl)-4H,5H-furo[2,3-d]pyridazin-5-yl]-N-(pyrimidin-2-yl)acetamide] | 100 to 1000 | 
10 | Cc1nn(CC(=O)Nc2ncc(F)cn2)c(=O)c2ccc(C3CC3)nc12 [Compound 35, 2-(2-Cyclopropyl-8-methyl-5-oxo-pyrido[2,3-d]pyridazin-6-yl)-N-(5-fluoropyrimidin-2yl)acetamide] | 100 to 1000 | 
11 | CNc1cc2c(C)nn(CC(=O)Nc3ncccn3)c(=O)c2s1 [Compound 118, 2-[4-methyl-2-(methylamino)-7-oxo-6H,7H-thieno[2,3-d]pyridazin-6-yl]-N-(pyrimidin-2-yl)acetamide] | 1000 to 3000 | 
12 | CC(C)c1nn(CC(=O)Nc2ccc3nncn3c2)c(=O)c2cc(C3CC3)oc12 [Compound 104, 2-[2-Cyclopropyl-4-oxo-7-(propan-2-yl)-4H,5H-furo[2,3-d]pyridazin-5-yl]-N-{[1,2,4]triazolo[4,3-a]pyridin-6-yl}acetamide] | 100 to 1000 | 
13 | CNc1cc2c(C3CC3)nn(CC(=O)Nc3ncccn3)c(=O)c2s1 [Compound 112, 2-[4-Cyclopropyl-2-(methylamino)-7-oxo-6H,7H-thieno[2,3-d]pyridazin-6-yl]-N-(pyrimidin-2-yl)acetamide] | 100 to 1000 | 
14 | CC(C)c1nn(CC(=O)N[C@@H]2CCCN(C3CC3)C2)c(=O)c2cc(Cl)sc12 [Compound 10, 2-(2-Chloro-7-isopropyl-4-oxo-thieno [2,3-d]pyridazin-5-yl)-N-[(3R)-1-cyclopropyl-3-piperidyl]acetamide] | 1000 to 3000 | 
15 | CCn1cc2c(=O)n(CC(=O)Nc3ncc(F)cn3)nc(C(C)C)c2n1 [Compound 8, 2-(2-Ethyl-7-isopropyl-4-oxo-pyrazolo[3,4-d]pyridazin-5-yl)-N-(5-fluoropyrimidin-2-yl)acetamide] | 100 to 1000 | 
16 | Cc1nn(CC(=O)N[C@@H]2CCCN(C3CCC3)C2)c(=O)c2ccc(C3CC3)nc12 [Compound 47] | 100 to 1000 | 

Row | Compound | IC50 (PBMC) [nM] | IC50 [nM]
17 | CC(C)c1nn(CC(=O)N[C@@H]2CCCN(C3CC3)C2)c(=O)c2sc(Cl)cc12 [Compound 11, 2-(2-Chloro-4-isopropyl-7-oxo-thieno[2,3-d]pyridazin-6-yl)-N-[(3R)-1-cyclopropyl-3-piperidyl]acetamide] | 1000 to 3000 | 
18 | CC(C)c1nn(CC(=O)Nc2ncccn2)c(=O)c2sc(C3CC3)cc12 [Compound 75, 2-(2-Cyclopropyl-4-isopropyl-7-oxothieno[2,3-d]pyridazin-6(7H)-yl)-N-(pyrimidin-2-yl)acetamide] | 100 to 1000 | 
19 | CC(C)c1nn(CC(=O)Nc2ncc(F)cn2)c(=O)c2sc(Cl)cc12 [Compound 60, 2-(2-Chloro-4-isopropyl-7-oxothieno[2,3-d]pyridazin-6(7H)-yl)-N-(5-fluoropyrimidin-2-yl)acetamide] | 100 to 1000 | 
20 | CCc1nn(CC(=O)Nc2ncc(F)cn2)c(=O)c2ccc(C3CC3)nc12 [Compound 33, 2-(2-Cyclopropyl-8-ethyl-5-oxo-pyrido[2,3-d]pyridazin-6-yl)-N-(5-fluoropyrimidin-2-yl)acetamide] | 100 to 1000 | 
21 | CCc1ccc2c(=O)n(CC(=O)Nc3ncccn3)nc(C(C)C)c2n1 [Compound 42] | 100 to 1000 | 
22 | CCc1nn(CC(=O)Nc2ncccn2)c(=O)c2ccc(C3CC3)nc12 [Compound 32, 2-(2-Cyclopropyl-8-ethyl-5-oxo-pyrido[2,3-d]pyridazin-6-yl)-N-pyrimidin-2-yl-acetamide] | 100 to 1000 | 
23 | CCOC(=O)c1cnc(NC(=O)Cn2nc(C)c3cc(C4CC4)sc3c2=O)nc1 [Compound 86, Ethyl 2-(2-{2-cyclopropyl-4-methyl-7-oxo-6H,7H-thieno[2,3-d]pyridazin-6-yl}acetamido)pyrimidine-5-carboxylate] | 100 to 1000 | 
24 | CCc1nc2c(C(C)C)nn(CC(=O)Nc3ncc(F)cn3)c(=O)c2s1 [Compound 36] | ≤ 100 | 
25 | CC(C)c1nn(CC(=O)Nc2ncco2)c(=O)c2cn(C3CC3)nc12 [Compound 73, 2-(2-Cyclopropyl-7-isopropyl-4-oxo-2,4-dihydro-5H-pyrazolo[3,4-d]pyridazin-5-yl)-N-(oxazol-2-yl)acetamide] | 100 to 1000 | 
26 | CCNc1cc2c(C)nn(CC(=O)Nc3ncccn3)c(=O)c2s1 [Compound 98, 2-[2-(Ethylamino)-4-methyl-7-oxo-6H,7H-thieno[2,3-d]pyridazin-6-yl]-N-(pyrimidin-2-yl)acetamide] | 1000 to 3000 | 
27 | CC(C)c1nn(CC(=O)Nc2ncccn2)c(=O)c2cc(Br)oc12 [Compound 62, 2-(2-Bromo-7-isopropyl-4-oxofuro[2,3-d]pyridazin-5(4H)-yl)-N-(pyrimidin-2-yl)acetamide] | 100 to 1000 | 
28 | Cc1nn(CC(=O)Nc2ncc(C#N)cn2)c(=O)c2cc(C3CC3)oc12 [Compound 91, N-(5-Cyanopyrimidin-2-yl)-2-{2-cyclopropyl-7-methyl-4-oxo-4H,5H-furo[2,3-d]pyridazin-5-yl}acetamide] | 100 to 1000 | 
29 | CC(C)c1nn(CC(=O)N[C@@H]2CCCN(C3CC3)C2)c(=O)c2c1cnn2C [Compound 1, N-[(3R)-1-Cyclopropyl-3-piperidyl]-2-(4-isopropyl-1-methyl-7-oxo-pyrazolo[3,4-d]pyridazin-6-yl)acetamide] | 3000 to 10000 | 
30 | CC(C)c1nn(CC(=O)Nc2ncc(F)cn2)c(=O)c2cn(C(C)C)nc12 [Compound 15, 2-(2,7-Diisopropyl-4-oxo-pyrazolo[3,4-d]pyridazin-5-yl)-N-(5-fluoropyrimidin-2-yl)acetamide] | 100 to 1000 | 
31 | CC(C)c1nn(CC(=O)Nc2ncccn2)c(=O)c2cn(C3CCC3)nc12 [Compound 71, 2-(2-Cyclobutyl-7-isopropyl-4-oxo-2,4-dihydro-5H-pyrazolo[3,4-d]pyridazin-5-yl)-N-(pyrimidin-2-yl)acetamide] | 1000 to 3000 | 
